Like-named read-outs stand apart in the source and are kept apart here.
What was measured:
[1] = system: model mice of oxygen-induced retinal angiogenesis; conditions: for retinal avascular area reduced as compared to control group: 15 or 75 μmol/kg once per day P7-P16, versus physiological saline
Source text: C57BL/6J mouse (SLC) was used as an experimental animal. […] Neonatal mice were bred from the 7th day (P7) to the 12th day (P12) after birth together with a parent mouse in a cage of high levels of oxygen (75±1% of O2) controlled by oxygen control equipment (PRO-OX110, produced by Reming Bioinstruments Co) to provide high levels of oxygen (75±1% of O2). Retinal angiogenesis was induced by breeding under normoxic condition (21% of O2) from the 12th day to the 17th day after birth. […] In addition, physiological saline as controls was similarly injected hypodermically instead of test compound.
Fifty micro grams per animal of fluorescein-conjugated dextran (FITC-dextran; M.W. 2×10^6, produced by SIGMA) were systemically perfused from the left ventricle under deep anesthesia with pentobarbital on the 17th day after birth (P17). After the perfusion, eyes of mouse were removed and fixed in a 4% paraformaldehyde phosphate buffer for 4-12 hours. After the fixation, the cornea and the lens were excised from eye, and the residual hyaloid artery was removed by micro tweezers. The retina was separated under a microscope, and subsequently set flat and embedded in [sequence] (produced by Vector Laboratories Inc.) for preparation of a retinal flat-mount.
Flat mounted retinas were imaged with a high sensitivity CCD camera under a fluorescent inverted microscope (Olympus IX71). A value of total retinal area and a value of retinal avascular area in obtained image were converted to numeric data by Photoshop CS4 extended (Adobe), and a value of areal ratio of retinal avascular area in comparison with the value of total retinal area was calculated by the following equation: value of areal ratio of retinal avascular area=value of retinal avascular area (μm^2)/value of total retinal area (μm^2)×100

[2] = system: model mice of oxygen-induced retinal angiogenesis; test: Exemplary experiment 3: regulation of retinal angiogenesis, administration from start of angiogenesis (P12); type: in vivo, C57BL/6J mouse; conditions: for value of areal ratio of retinal avascular area / value of retinal avascular area: 15 μmol/kg hypodermically once per day P12-P16, average; for reduction of retinal avascular area in comparison with a control group: 15 μmol/kg, administered from the start of retinal angiogenesis (P12)
Protocol: For the model mice of oxygen-induced retinal angiogenesis, retinal angiogenesis is induced by providing 75% oxygen followed by breeding in room air during P12-P17.
Sodium nitrate or sodium nitrite as a test compound was dissolved in physiological saline for injection to prepare a test compound injection of […].
Preparation of the model mice of oxygen-induced retinal angiogenesis, fluorescent imaging of retinal vessels and a retinal flat-mount were operated according to exemplary experiment 1. However sodium nitrate or sodium nitrite was injected to a cervical region hypodermically once per day in amount of 15 μmol/kg for […] from the 12th day (P12) to the 16th day (P16) after birth. In addition, physiological saline as controls was similarly injected hypodermically instead of test compound for the same period of time.
(§1) Areal ratio of retinal avascular area was calculated pursuant to exemplary experiment 1.

[3] = system: model mice of oxygen-induced retinal angiogenesis; test: Exemplary experiment 2: suppression of pathologic neovascularization (pathological vessels extending into the vitreum); type: in vivo, C57BL/6J mouse; conditions: for number of pathological vessels breaking the inner limiting membrane and extending into the vitreum: 15 or 75 μmol/kg once per day P7-P16, P17, FIG. 2, versus physiological saline
Protocol: The effect of sodium nitrate and sodium nitrite for suppression of pathologic neovascularization by oxygen-induced retinal vascularized model was evaluated.
(§2) Sodium nitrate or sodium nitrite as a test compound was dissolved in physiological saline for injection to prepare a test compound injection of […].
C57BL/6J mouse (SLC) was used as an experimental animal. The model mice of oxygen-induced retinal angiogenesis were prepared according to exemplary experiment 1. Sodium nitrate or sodium nitrite was injected to a cervical region hypodermically once per day in amount of 15 or 75 μmol/kg for ten days from the 7th day (P7) to the 16th day (P16) after birth. In addition, physiological saline as controls was similarly injected hypodermically instead of test compound.
On the 17th day after birth (P17), the mice were euthanised by overdose of pentobarbital, and eyes were removed together with optic nerve. The eyes were washed in physiological saline, excessive tissues were excised, and the eyes were thus fixed in a 4% paraformaldehyde phosphate buffer for 12 hours. After the fixation, the eyes were dehydrated by immersing in a graded ethanol series of 70-100% sequentially and were embedded in paraffin.

[4] = Exemplary experiment 6: plasma concentration of nitrate ions after administration; conditions: P12, average
Protocol: as §2
C57BL/6J mouse (SLC) was used as an experimental animal. The model mice of oxygen-induced retinal angiogenesis were prepared according to exemplary experiment 1. […] Thereafter, isoflurane was used to anesthetize the mice, and 150 μl of blood was collected from the abdominal aorta over time. Plasma concentration of nitrate ions was measured by ion exchange chromatography using a normal phase column under the following conditions:
Conditions for Ion Exchange Chromatography • Separation column: Asahipak NH2P-50 4E (4.6 mm×250 mm) • Guard column: Inertsil NH2 (5 μm) (4 mm×10 mm) • Mobile phase: 10 mM of sodium dihydrogenphosphate, 150 mM of sodium perchlorate, 5.0 • Flow rate: 0.7 ml/min • Detection wavelength: 210 nm

[5] = in vivo; cited from earlier work
[6] = system: model mice of oxygen-induced retinal angiogenesis; test: Exemplary experiment 4: nitrite versus general-purpose nitrogen monoxide donor drugs, retinal avascular area; type: in vivo, C57BL/6J mouse
Protocol: Preparation of the model mice of oxygen-induced retinal angiogenesis, fluorescent imaging of retinal vessels and a retinal flat-mount were operated according to exemplary experiment 1.
as §1

[7] = system: model mice of oxygen-induced retinal angiogenesis; test: Exemplary experiment 5: nitrite versus anti-VEGF antibody, retinal avascular area; type: in vivo, C57BL/6J mouse; conditions: 15 μmol/kg hypodermically once per day P7-P16, average
Protocol: Using the model mice of oxygen-induced retinal angiogenesis, a comparison was made about retinopathy treatment effect between nitrite and an anti-VEGF antibody used for treatment of progressive colorectal cancer, age-related macular degeneration and so on.
Sodium nitrite as a test compound was dissolved in physiological saline for injection to prepare a test compound injection of 3 μmol/ml. For a comparative example, a murine monoclonal anti-VEGF antibody (produced by SANTACRUZ BIOTECHNOLOGY, INC.) was condensed to prepare 500 μg IgG/ml of an injection for the comparative example.
Preparation of the model mice of oxygen-induced retinal angiogenesis, fluorescent imaging of retinal vessels and a retinal flat-mount were operated according to exemplary experiment 1. Sodium nitrite was injected to a cervical region hypodermically once per day in amount of 15 μmol/kg for ten days from the 7th day (P7) to the 16th day (P16) after birth. The anti-VEGF antibody was injected through the corneal limbus to the vitreous body with a microsyringe equipped with a 33G hypodermic needle, by cutting mice eyelids open when oxygenation ended (on the 12th day alter birth).
as §1

[8] = system: methemoglobinemia; conditions: reported for Rodentia; cited from earlier work
[9] = 75 μmol/kg hypodermically once per day P7-P16, evaluated P17, average
[10] = 15 μmol/kg hypodermically once per day P7-P16, evaluated P17, average
[11] = 15 μmol/kg hypodermically once per day P7-P16, average
[12] = 20 μmol/kg hypodermically once per day P7-P16, average

Q: What does the source list for `O=[N+]([O-])[O-].[Na+]` [sodium nitrate]?
A: value of areal ratio of retinal avascular area [1, 9]: 12.7%; value of retinal avascular area [1, 9]: 842271.02 μm^2; retinal avascular area reduced as compared to control group [1]: approximately 20%; value of areal ratio of retinal avascular area [2]: 8.76%; value of retinal avascular area [2]: 506451.72 μm^2; reduction of retinal avascular area in comparison with a control group [2]: approximately 40%; number of pathological vessels breaking the inner limiting membrane and extending into the vitreum [3]: decreased; maximum plasma concentration of nitrate ions after single-dose administration ([4]; 15 μmol/kg subcutaneously in cervical region): 135.38 µmol/L; maximum plasma concentration of nitrate ions after single-dose administration ([4]; 75 μmol/kg subcutaneously in cervical region): 194.9 µmol/L; nitrate having entered systemic circulation secreted in saliva [5]: approximately 25%; portion of nitrate in saliva reduced to nitrite by dental bacteria [5]: approximately 30%

Q: With `O=NO` [sodium nitrite] as the compound, how does the “value of areal ratio of retinal avascular area” value [1, 10] read?
A: 6.44%

Q: And the “value of retinal avascular area” value [1, 10]?
A: 417863.94 μm^2

Q: And the “value of areal ratio of retinal avascular area” value [1, 9]?
A: 10.01%

Q: And the “value of retinal avascular area” value [1, 9]?
A: 571705.28 μm^2

Q: And the “retinal avascular area reduced as compared to control group” value [1]?
A: 40-60%

Q: What about the “value of areal ratio of retinal avascular area” value [2] of the same compound?
A: 9.3%

Q: And the “value of retinal avascular area” value [2]?
A: 621218.70 μm^2

Q: And the “reduction of retinal avascular area in comparison with a control group” value [2]?
A: approximately 40%

Q: What about the “value of areal ratio of retinal avascular area” value [6, 11] of the same compound?
A: 6.44%

Q: And the “value of retinal avascular area” value [6, 11]?
A: 417863.94 μm^2

Q: And the “value of areal ratio of retinal avascular area” value [7]?
A: 9.3%

Q: And the “value of retinal avascular area” value [7]?
A: 621218.70 μm^2

Q: And the “value of areal ratio of retinal avascular area” value ([7]; listed as nitrite)?
A: 9.3%

Q: And the “pathological vessels reduced as compared with a control” value ([3]; 75 μmol/kg once per day P7-P16, P17)?
A: approximately 30%

Q: And the “number of pathological vessels breaking the inner limiting membrane and extending into the vitreum” value [3]?
A: decreased

Q: And the “maximal no-effect dose for methemoglobinemia” value [8]?
A: 84 mg/kg/day

Q: With `O=[N+]([O-])OCC(CO[N+](=O)[O-])O[N+](=O)[O-]` [NTG, nitroglycerin] as the compound, how does the “value of areal ratio of retinal avascular area” value [6, 12] read?
A: 21.36%

Q: And the “value of retinal avascular area” value [6, 12]?
A: 1456421.33 μm^2

Q: What about the “retinal avascular area increased in comparison with a group administered with nitrite” value ([6]; SNP 2 μmol/kg, NTG 20 μmol/kg versus sodium nitrite 15 μmol/kg, P7-P16) of the same compound?
A: approximately 3.3 times

Q: What about the “reduction of avascular area (typical symptom of retinopathy), in words” value ([6]; SNP 2 μmol/kg, NTG 20 μmol/kg, once per day P7-P16) of the same compound?
A: Neither SNP nor NTG was observed to reduce

Reference: patent US8974836B2, “Angiogenesis regulating composition and method for regulating angiogenesis” (Air Water, Inc., priority 2009, dated 2015)
